{"source": "BindingDB's records for PubMed 32707525", "about": "(n/a, 2020)", "note": "Square brackets hold non-standard residues; d marks the D form. Peptide text beside a SMILES is read from it. Mpa = O=C(O)CCS", "data": [{"biological_target": "CDK9/cyclin T1 (Homo sapiens, UniProt O60563+P50750)", "sequence (O60563 whole entry, looked up)": "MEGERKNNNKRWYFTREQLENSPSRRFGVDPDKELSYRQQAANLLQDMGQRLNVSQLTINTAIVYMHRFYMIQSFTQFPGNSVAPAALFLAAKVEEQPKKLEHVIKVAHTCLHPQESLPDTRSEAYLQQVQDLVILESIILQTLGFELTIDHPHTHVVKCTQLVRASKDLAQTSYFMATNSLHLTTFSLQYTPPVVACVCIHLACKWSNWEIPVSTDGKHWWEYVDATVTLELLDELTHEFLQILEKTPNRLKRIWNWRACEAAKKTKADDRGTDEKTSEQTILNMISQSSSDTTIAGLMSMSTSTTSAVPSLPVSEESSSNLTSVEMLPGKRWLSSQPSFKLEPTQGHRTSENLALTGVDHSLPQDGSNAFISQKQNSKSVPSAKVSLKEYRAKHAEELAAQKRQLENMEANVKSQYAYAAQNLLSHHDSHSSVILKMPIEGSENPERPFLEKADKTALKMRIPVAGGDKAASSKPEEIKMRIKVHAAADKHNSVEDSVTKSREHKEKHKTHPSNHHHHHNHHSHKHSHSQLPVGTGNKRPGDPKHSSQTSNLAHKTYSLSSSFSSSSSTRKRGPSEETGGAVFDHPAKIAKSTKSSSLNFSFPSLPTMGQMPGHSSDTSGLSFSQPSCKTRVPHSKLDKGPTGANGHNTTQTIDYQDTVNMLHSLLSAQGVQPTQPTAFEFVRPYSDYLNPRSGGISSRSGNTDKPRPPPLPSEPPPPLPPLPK", "sequence (P50750 whole entry, looked up)": "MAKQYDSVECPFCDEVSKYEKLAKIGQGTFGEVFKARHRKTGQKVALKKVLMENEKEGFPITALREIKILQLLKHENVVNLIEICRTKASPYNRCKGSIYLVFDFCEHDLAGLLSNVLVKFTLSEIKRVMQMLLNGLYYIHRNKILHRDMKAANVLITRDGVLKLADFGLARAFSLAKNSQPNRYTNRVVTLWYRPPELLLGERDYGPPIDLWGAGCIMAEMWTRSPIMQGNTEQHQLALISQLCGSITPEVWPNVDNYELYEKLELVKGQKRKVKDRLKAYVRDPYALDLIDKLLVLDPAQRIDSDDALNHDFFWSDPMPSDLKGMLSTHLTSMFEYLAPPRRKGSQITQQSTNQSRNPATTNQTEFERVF", "assay": "Inhibition of CDK9/cyclin T1 (unknown origin) assessed as inhibition constant", "units": {"Ki": "nM"}, "values": [{"compound": "CC(C)C[C@H](NC(=O)[C@@H](NC(=O)c1ccc(OCc2ccccc2)cc1)C(C)C)C(=O)N[C@@H](CO)C(=O)O", "Ki": 3.3}, {"compound": "CC(C)C[C@H](NC(=O)[C@@H](NC(=O)c1cccc(OCc2ccccc2)c1)C(C)C)C(=O)N[C@@H](CO)C(=O)O", "Ki": 3.3}, {"compound": "CC(C)C[C@H](NC(=O)[C@@H](NC(=O)CCS)C(C)C)C(=O)N[C@@H](CO)C(=O)O", "note": "([Mpa]VLS-OH)", "Ki": 3.3}]}, {"biological_target": "Cyclin-dependent kinase 2/cyclin E1 (Homo sapiens, UniProt P24864+P24941)", "assay": "Inhibition of CDK2/cyclin E1 (unknown origin) incubated for 60 mins in presence of ATP by ADP-Glo luminescent Kinase Assay", "units": {"IC50": "nM"}, "values": [{"compound": "CC(C)C[C@H](NC(=O)[C@@H](NC(=O)c1ccccc1OCc1ccccc1)C(C)C)C(=O)N[C@@H](CO)C(=O)O", "IC50": 0.216}, {"compound": "CC(C)C[C@H](NC(=O)[C@@H](NC(=O)c1ccccc1O)C(C)C)C(=O)N[C@@H](CO)C(=O)O", "IC50": 0.216}]}, {"biological_target": "CDK2/Cyclin A2 (Homo sapiens, UniProt P20248+P24941)", "assay": "Inhibition of CDK2/cyclin A2 (unknown origin) using histone as substrate in presence of ATP by luminescent ADP detection assay", "units": {"IC50": "nM"}, "values": [{"compound": "CC(C)[C@H](NC(=O)[C@H](Cc1ccccc1)NC(=O)[C@@H](Cc1ccc(O)cc1)NC(=O)CC12CC3CC(CC(C3)C1)C2)C(=O)N[C@@H](CC(N)=O)C(=O)N[C@@H](CCCN=C(N)N)C(=O)N1CCC[C@@H]1C(=O)N[C@@H](CCCN=C(N)N)C(=O)N[C@@H](CCCN=C(N)N)C(N)=O", "IC50": "< 20"}, {"compound": "CCCCC/N=C(/N)N/N=C/c1c[nH]c2ccc(OC(C)C)cc12", "IC50": "< 20"}, {"compound": "CCCCC/N=C(/N)N/N=C/c1c[nH]c2ccc(OCC=C(C)C)cc12", "IC50": "< 20"}, {"compound": "CCOc1ccc(C[C@@H](NC(=O)CC23CC4CC(CC(C4)C2)C3)C(=O)N[C@@H](Cc2ccccc2)C(=O)N[C@H](C(=O)N[C@@H](CC(N)=O)C(=O)N[C@@H](CCCCN)C(=O)N2CCC[C@@H]2C(=O)N[C@@H](CCCN=C(N)N)C(=O)N[C@@H](CCCN=C(N)N)C(N)=O)C(C)C)cc1", "IC50": "< 20"}, {"compound": "CCCCCNC(=N)N/N=C/c1c[nH]c2ccc(O)cc12", "IC50": "< 20"}]}]}
